Experimental data: patent US8324406B2, “Antitumoral dihydropyran-2-one compounds” (priority 2006, dated 2012)
pIC50: −log10 of the molar value. ≈ marks a conversion by molar mass, not a printed value. Read-outs that look alike come from different tables or passages of the source.

What was measured:
[1] = system: breast cancer carcinoma; settings: cited from earlier work
[2] = system: A549; assay: cells; type: cell-based; settings: Homo sapiens; for IC (TGI): read-out: TGI
Excerpt: (§1) The aim of this assay is to evaluate the in vitro cytostatic (ability to delay or arrest tumor cell growth) or cytotoxic (ability to kill tumor cells) activity of the samples being tested.
(§2) Evaluation of Cytotoxic Activity Using the SBR Colorimetric Assay
(§3) A colorimetric type of assay, using sulforhodamine B (SRB) reaction has been adapted for a quantitative measurement of cell growth and viability (following the technique described by Skehan P et al. J. Natl. Cancer Inst. 1990, 82, 1107-1112).
(§4) This form of assay employs SBS-standard 96-well cell culture microplates (Faircloth et al. Methods in cell science, 1988, 11(4), 201-205; Mosmann et al, Journal of. Immunological. Methods, 1983, 65(1-2), 55-63). All the cell lines used in this study, derived from different types of human cancer, were obtained from the American Type Culture Collection (ATCC).
(§5) Cells were maintained in Dulbecco's Modified Eagle Medium (DMEM) supplemented with 10% Fetal Bovine Serum (FBS), 2 mM L-glutamine, 100 U/mL penicillin and 100 U/mL streptomycin at 37° C., 5% CO2 and 98% humidity. For the experiments, cells were harvested from subconfluent cultures using trypsinization and resuspended in fresh medium before counting and plating.
(§6) Cells were seeded in 96 well microtiter plates at 5×10^3 cells per well in aliquots of 150 μL, and allowed to attach to the plate surface for 18 hours in drug free medium. One control (untreated) plate of each cell line was fixed (as described below) and used for time zero reference value. Afterwards, test samples were added to the cultures in ten serial dilutions, in aliquots of 50 μL, ranging from 10 to 0.00262 μg/mL. After 48 hours exposure, the antitumor effect was estimated by the SRB method: Briefly, cells were washed twice with PBS, fixed for 15 min in 1% glutaraldehyde solution, rinsed twice in PBS, and stained in 0.4% SRB solution for 30 min at room temperature. Cells were then rinsed several times with 1% acetic acid solution and air-dried. SRB was then extracted in 10 mM trizma base solution and the absorbance measured in an automated spectrophotometric plate reader at 490 nm. Cell survival was expressed as percentage of control cell growth. The final effect of the sample being tested was estimated by applying the NCI algorithm (Boyd M R and Paull K D. Drug Dev. Res. 1995, 34, 91-104).
(§7) Using the mean±SD of triplicate cultures, a dose-response curve was automatically generated using nonlinear regression analysis. Three reference parameters were calculated (NCI algorithm) by automatic interpolation: GI50=concentration that produces 50% growth inhibition; TGI=total growth inhibition (cytostatic effect) and LC50=concentration that produces 50% net cell killing (cytotoxic effect).

[3] = system: MDA-MB-231; assay: cells; type: cell-based; settings: Homo sapiens; for IC (TGI): read-out: TGI
Excerpt: as §1, §2, §3, §4, §5, §6, §7

[4] = system: HT29; assay: cells; type: cell-based; settings: Homo sapiens; for IC (TGI): read-out: TGI
Excerpt: as §1, §2, §3, §4, §5, §6, §7

[5] = system: HeLa cells; assay: Anti-mitotic assay (anti-MPM2 immunoassay); type: cell-based; settings: Homo sapiens, 18 hours incubation, read-out: IC50 (50% mitotic arrest)
Method: Anti-Mitotic Assay Protocol
The mitotic ratio of the cell cultures (percentage of cells arrested in mitosis) was estimated using a specific 96-well microplate immunoassay that quantitatively detects a specific mitotic marker. HeLa cells (h-cervix carcinoma, ATCC# CCL-2) were incubated for 18 hours in the presence or absence of the samples being tested. Afterwards, cells were washed with PBS and lysed on ice in 75 μL of freshly prepared lysis buffer (1 mM EGTA (pH 7.5), 0.5 mM PMSF and 1 mM NaVO3) for 30 min. An aliquot of the cell extract (60 μL) was transferred to a high-binding surface ELISA plate and dried in a speed-vac for 2 h at room temperature. Plates were then blocked in 100 μL. PBS-1% BSA for 30 min at 30° C. and sequentially incubated with anti-MPM2 primary mouse monoclonal antibody (Upstate Biotechnology, cat #05-368) for 18 h at 4° C. and appropriate peroxidase-conjugated secondary antibody for 1 h at 30° C. After intensive washing in 0.02% Tween-20, peroxidase reaction were performed using 30 μL of TMB (3,3′,5,5′-tetramethyl-benzidine) for 30 min at 30° C. Reaction was stopped by adding 30 μL of a 4% H2SO4 solution. Assay was quantified by measuring the O.D. at 450 nm in a microplate spectrophotometer. Results were expressed as IC50, sample concentration that produces 50% mitotic arrest in treated cell cultures, as compared to control, untreated cultures.

[6] = system: Saccharomyces cerevisiae; settings: fungus Saccharomyces cerevisiae; cited from earlier work
[7] = system: L929 mouse fibroblast cell culture; settings: cited from earlier work
[8] = MDA-MB-231, 48 h, read-out: LC50
[9] = A549, 48 hours exposure, SRB, 50% net cell killing (cytotoxic effect), read-out: LC50 (the source's name)
[10] = A549, 48 hours exposure, SRB, concentration that produces 50% growth inhibition, read-out: GI50
[11] = A549, 48 hours exposure, SRB, total growth inhibition (cytostatic effect)
[12] = MDA-MB-231, 48 hours exposure, SRB, 50% net cell killing (cytotoxic effect), read-out: LC50 (the source's name)
[13] = MDA-MB-231, 48 hours exposure, SRB, concentration that produces 50% growth inhibition, read-out: GI50
[14] = MDA-MB-231, 48 hours exposure, SRB, total growth inhibition (cytostatic effect)
[15] = HT-29, HT29, 48 hours exposure, SRB, 50% net cell killing (cytotoxic effect), read-out: LC50 (the source's name)
[16] = HT-29, HT29, 48 hours exposure, SRB, concentration that produces 50% growth inhibition, read-out: GI50
[17] = HT-29, HT29, 48 hours exposure, SRB, total growth inhibition (cytostatic effect)

Structure (SMILES) | GI50 ([2]; A549, 48 h) [nM] | CC50 ([2]; A549, 48 h, read-out: LC50) [nM] | IC (TGI) ([2]; A549, 48 h) [µM] | GI50 ([3]; MDA-MB-231, 48 h) [nM] | CC50 [3, 8] [nM] | IC (TGI) ([3]; MDA-MB-231, 48 h) [nM] | GI50 ([4]; HT-29, 48 h) [nM] | CC50 ([4]; HT-29, 48 h, read-out: LC50) [nM] | IC (TGI) ([4]; HT-29, 48 h) [nM] | CC50 [2, 9] [nM] | GI50 [2, 10] [nM] | IC (TGI) [2, 11] [µM] | CC50 [3, 12] [nM] | GI50 [3, 13] [nM] | IC (TGI) [3, 14] [nM] | CC50 [4, 15] [nM] | GI50 [4, 16] [nM] | IC (TGI) [4, 17] [nM] | other results
C=C/C=C\[C@H](C)[C@H](OC(N)=O)[C@@H](C)[C@H](O)[C@@H](C)C/C(C)=C\[C@H](C)[C@@H](O)[C@@H](C)/C=C\[C@@H](O)CC1OC(=O)[C@H](C)[C@@H](O)[C@H]1C (single isomer, unassigned; (+)) [(+)-discodermolide] |  |  |  |  |  |  |  |  |  |  |  |  |  |  |  |  |  |  | pIC50 [1]: 8.62
COC1=CC[C@@H]([C@@H](C)/C=C(C)/C=C\C=C/C(=O)N[C@H](C(=O)N/C=C\C[C@H](C/C=C(\C)Cl)OC(N)=O)C(C)(C)C)OC1=O [Compound 1] | 0.379 | > 165 | 0.00109 | 0.445 | 2.8 | 0.99 | 0.462 | 0.99 | 0.61 |  |  |  |  |  |  |  |  |  | pIC50 [5]: 7.58
COC1=CCC(C(C)/C=C(C)/C=C/C=C\C(=O)NC(C(=O)N/C=C\CC(C/C=C(\C)Cl)OC(N)=O)C(C)(C)C)OC1=O (stereo not drawn) [Compound 2] | 8.63 | ≥ 16500 | 0.0237 | 9.85 | 72 | 21.5 | 8.31 | 17.2 | 10.9 |  |  |  |  |  |  |  |  |  | pIC50 [5]: 7.58
COC1=CC[C@@H]([C@@H](C)/C=C(C)/C=C\C=C/C(=O)N[C@@H](Cc2ccccc2)C(=O)N/C=C\C[C@H](C/C=C(\C)Cl)OC(N)=O)OC1=O [Compound 31] |  |  |  |  |  |  |  |  |  | > 15.6 | 0.0922 | 0.000219 | 0.359 | 0.075 | 0.15 | > 15.6 | 0.0406 | 0.102 | 
COC1=CC[C@@H]([C@@H](C)/C=C(C)/C=C/C=C/C(=O)N[C@H](C(=O)N/C=C\C[C@H](C/C=C(\C)Cl)O[Si](C)(C)C(C)(C)C)C(C)(C)C)OC1=O [Compound 37] |  |  |  |  |  |  |  |  |  | 13900 | 3540 | 6.64 | > 14800 | 3100 | 5610 | 10000 | 1920 | 2950 | 
COC1=CC[C@@H]([C@@H](C)/C=C(C)/C=C/C=C/C(=O)N[C@H](C(=O)N/C=C\C[C@@H](O)C/C=C(\C)Cl)C(C)(C)C)OC1=O [Compound 38] |  |  |  |  |  |  |  |  |  | > 178 | 46.2 | 0.0675 | > 178 | 60.4 | > 178 | > 178 | 39.1 | 63.9 | 
COC1=CC[C@@H]([C@@H](C)/C=C(C)/C=C\C=C/C(=O)N[C@H](C(=O)N/C=C\C[C@@H](C/C=C(\C)Cl)OC(N)=O)C(C)(C)C)OC1=O [Compound (21S)-1] | 2.14 | > 1650 | 0.0429 | 1.65 | 34.6 | 5.77 | 0.891 | 23.1 | 1.63 |  |  |  |  |  |  |  |  |  | 
COC(=O)CNC(=O)CCC/C=C\NC(=O)/C=C(C)/C=C/[C@H](C)[C@H](OC)[C@H](C)[C@H](/C=C/c1ccccc1)OC [crocacin D] |  |  |  |  |  |  |  |  |  |  |  |  |  |  |  |  |  |  | MIC [6]: 1.4 ng/mL (≈ 0.00259 µM); IC50 (toxicity) [7]: 0.06 mg/L (≈ 0.111 µM)
CC(=O)O[C@H]1C(=O)[C@@]2(C)[C@H]([C@H](OC(=O)c3ccccc3)[C@]3(O)C[C@H](OC(=O)[C@H](O)[C@@H](NC(=O)c4ccccc4)c4ccccc4)C(C)=C1C3(C)C)[C@]1(OC(C)=O)CO[C@@H]1C[C@@H]2O [paclitaxel] |  |  |  |  |  |  |  |  |  |  |  |  |  |  |  |  |  |  | pIC50 [1]: 8.68
